Measured values reported in patent publication US20140259191A1, “FISH ANESTHETIC AND METHOD” (AQUA-MOR TECHNOLOGIES LTD., priority 2011, published 2014).

System: common carp
Assay: Five-hour sedation of common carp, linalool versus 2-phenoxyethanol
Type: in vivo
Conditions: linalool 40 ppm, 2-PE 200 ppm; for Number of fish exhibiting loss of upright position: 26° C.
Protocol: 2-Phenoxyethanol (2-PE) is used to sedate fish in vaccinations procedures for relatively long periods of time (3 hours). 35 common carp were placed in each of two 60-liter tanks containing water at 26° C. Into one tank was added linalool (in a formulation as described in Example 28) to a concentration of 40 ppm; into the other tank was added 2-PE to a concentration of 200 ppm. Sedation of fish was determined by observation of loss of upright position, operculum movement and response to stimulus (handling). Total exposure time was five hours, at the end of which the fish were transferred 60-liter recovery tanks containing untreated water.

## OCCOc1ccccc1 [2-phenoxyethanol, 2-Phenoxyethanol, reference compound]
35 common carp per tank, time 10:30 (start), aeration
  Number of fish exhibiting loss of upright position: 0
35 common carp per tank, time 11:00 (start 10:30), no aeration
  Number of fish exhibiting loss of upright position: 1
35 common carp per tank, time 11:40 (start 10:30), no aeration
  Number of fish exhibiting loss of upright position: 2
35 common carp per tank, time 12:35 (start 10:30), no aeration
  Number of fish exhibiting loss of upright position: 2
35 common carp per tank, time 13:35 (start 10:30), no aeration
  Number of fish exhibiting loss of upright position: 2
35 common carp per tank, time 14:30 (start 10:30), aeration
  Number of fish exhibiting loss of upright position: 2
35 common carp per tank, time 15:30 (start 10:30), aeration
  Number of fish exhibiting loss of upright position: None
35 common carp per tank, after five hours exposure
  survival at transfer to recovery tank: All alive
Common carp
  reflex response over the 5 hours of exposure: reduced substantially from the beginning of the trial and increased with the passage of time until the end of the trial
  sedative effect between 3 and 5 hours of exposure: reduced
Common carp, after five hours exposure
  recovery after placement in a recovery tank: recovered quickly in few minutes and did not show signs of stress
Common carp, sedation levels enabled handling
  response to external stimulation during the first 3 hours: did not respond to external stimulation
